Laboratory results as given in ChEMBL document CHEMBL4814073, “Ring-opening of five-membered heterocycles conjugated 4-isopropylresorcinol scaffold-based benzamides as HSP90 inhibitors suppressing tumor growth in vitro and in vivo” (Eur J Med Chem, 2021).
Calls of active or inactive are those of the source. No cut-off for these calls is given here.

Tests used:
[1] = test system: A549; assay: Induction of EGFR degradation in human A549 cells assessed as reduction in eGFR expression at 3 uM by immunoblot analysis; assay type: functional, cell-based; settings: time hrs <=24, TDE = time-dependent effect
[2] = test system: A549; assay: Inhibition of MAPK signaling pathway in human A549 cells at 3 uM incubated for 24 hrs by immunoblot analysis; assay type: cell-based
[3] = Tmax in Sprague-Dawley rat at 20 mg/kg, po measured after 1 hrs by LC-MS/MS analysis; assay type: ADME, organism-based; settings: in vivo
[4] = test system: A549; assay: Induction of apoptosis in human A549 cells assessed as increase in cleaved caspase 7 protein expression at 0.3 to 3 uM measured after 18 hrs by western blot analysis; assay type: functional, cell-based; settings: dose 0.3-3 µM
[5] = Hepatic clearance in Sprague-Dawley rat by LC-MS/MS analysis; assay type: ADME, tissue-based, Hepatocyte; settings: hepatocytes
[6] = Metabolic stability in CD1 mouse hepatocytes assessed as Intrinsic clearance by LC-MS/MS analysis; assay type: ADME, cell-based, Hepatocyte
[7] = biological target: Cytochrome P450 2D6 (Homo sapiens, UniProt P10635); assay: Inhibition of CYP2D6 in human liver microsomes using dextromethorphan as substrate by LC-MS/MS analysis; assay type: ADME
Sequence of Cytochrome P450 2D6 (P10635 whole entry): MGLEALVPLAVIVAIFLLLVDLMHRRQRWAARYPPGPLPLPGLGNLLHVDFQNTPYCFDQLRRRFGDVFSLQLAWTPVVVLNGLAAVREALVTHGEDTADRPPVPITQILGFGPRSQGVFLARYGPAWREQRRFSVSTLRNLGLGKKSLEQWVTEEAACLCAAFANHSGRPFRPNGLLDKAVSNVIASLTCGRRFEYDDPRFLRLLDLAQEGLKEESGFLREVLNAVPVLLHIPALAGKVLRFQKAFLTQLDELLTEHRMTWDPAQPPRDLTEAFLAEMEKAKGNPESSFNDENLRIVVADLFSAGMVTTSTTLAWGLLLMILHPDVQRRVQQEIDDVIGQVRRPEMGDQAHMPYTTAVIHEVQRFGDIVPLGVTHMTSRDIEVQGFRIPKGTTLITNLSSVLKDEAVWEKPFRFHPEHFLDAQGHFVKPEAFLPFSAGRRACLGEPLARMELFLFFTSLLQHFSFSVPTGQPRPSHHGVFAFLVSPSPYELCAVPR

[8] = test system: A549; assay: Induction of cell cycle arrest in human A549 cells assessed as increases in cdc2 expression at Thr161 at 0.3 uM incubated for 24 hrs by Western blot analysis; assay type: functional, cell-based
[9] = Metabolic stability in Beagle dog hepatocytes assessed as Intrinsic clearance by LC-MS/MS analysis; assay type: ADME, cell-based, Canis lupus familiaris, Hepatocyte
[10] = test system: 661W; assay: Cytotoxicity against mouse 661W cells by MTT based vision related toxicity assay; assay type: cell-based
[11] = Toxicity in BALB/c mouse xenografted with human A549 cells assessed as reduction in body weight at 25 to 50 mg/kg, po treated daily relative to control; settings: in vivo
[12] = AUC (0 to t) in Sprague-Dawley rat at 20 mg/kg, po measured after 1 hrs by LC-MS/MS analysis; assay type: ADME, organism-based; parameters: route oral, time 1 hrs, dose 20 mg/kg; settings: in vivo
[13] = biological target: Cytochrome P450 2C9 (Homo sapiens, UniProt P11712); assay: Inhibition of CYP2C9 in human liver microsomes using diclofenac as substrate by LC-MS/MS analysis; assay type: ADME
Sequence of Cytochrome P450 2C9 (P11712 whole entry): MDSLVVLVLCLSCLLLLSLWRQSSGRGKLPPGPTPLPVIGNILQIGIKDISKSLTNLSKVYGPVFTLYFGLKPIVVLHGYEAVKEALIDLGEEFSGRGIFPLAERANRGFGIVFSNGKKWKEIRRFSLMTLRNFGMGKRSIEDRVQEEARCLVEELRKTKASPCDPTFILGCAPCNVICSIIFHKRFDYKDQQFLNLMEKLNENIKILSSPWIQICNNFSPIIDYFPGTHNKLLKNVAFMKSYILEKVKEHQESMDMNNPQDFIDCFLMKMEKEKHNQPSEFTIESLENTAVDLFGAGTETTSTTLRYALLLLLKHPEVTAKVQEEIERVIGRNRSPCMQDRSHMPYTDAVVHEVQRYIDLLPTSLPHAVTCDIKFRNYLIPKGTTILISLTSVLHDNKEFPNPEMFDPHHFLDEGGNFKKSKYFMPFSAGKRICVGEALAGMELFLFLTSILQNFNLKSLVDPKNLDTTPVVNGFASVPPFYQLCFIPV

[14] = Metabolic stability in Sprague-Dawley rat hepatocytes assessed as Intrinsic clearance by LC-MS/MS analysis; assay type: ADME, cell-based, Hepatocyte
[15] = Metabolic stability in Sprague-Dawley rat hepatocytes assessed as half life by LC-MS/MS analysis; assay type: ADME, cell-based, Hepatocyte
[16] = test system: A549; assay: Induction of cell cycle arrest in human A549 cells assessed as decrease in cdc25c expression at Ser216 at 0.3 uM incubated for 24 hrs by Western blot analysis; assay type: functional, cell-based
[17] = test system: A549; assay: Induction of apoptosis in human A549 cells assessed as increase in cleaved caspase 9 protein expression at 0.3 to 3 uM measured after 18 hrs by western blot analysis; assay type: functional, cell-based; settings: dose 0.3-3 µM
[18] = Clearance in Sprague-Dawley rat at 2 mg/kg, iv measured after 1 hrs by LC-MS/MS analysis; assay type: ADME, organism-based; settings: in vivo
[19] = biological target: CYP2D6 (Homo sapiens, UniProt P10635); assay: Inhibition of CYP2D6 in human liver microsomes using dextromethorphan as substrate at 50 uM by LC-MS/MS analysis; assay type: ADME; settings: probe dextromethorphan
Sequence of CYP2D6 (P10635 whole entry): as the sequence (P10635 whole entry) above

[20] = biological target: T1, Heat shock protein HSP90 (Homo sapiens, UniProt P07900+P08238); assay: Inhibition of HSP90 in human A549 cells assessed as downregulation of Src expression incubated for 24 hrs by immunoblot analysis; assay type: cell-based; settings: dose microM <=3, time 24.0 hrs
[21] = biological target: T2, Cytochrome P450 2B6 (Homo sapiens, UniProt P20813); assay: Inhibition of CYP2B6 in human liver microsomes using bupropion as substrate by LC-MS/MS analysis; assay type: ADME
T2 sequence (P20813 whole entry): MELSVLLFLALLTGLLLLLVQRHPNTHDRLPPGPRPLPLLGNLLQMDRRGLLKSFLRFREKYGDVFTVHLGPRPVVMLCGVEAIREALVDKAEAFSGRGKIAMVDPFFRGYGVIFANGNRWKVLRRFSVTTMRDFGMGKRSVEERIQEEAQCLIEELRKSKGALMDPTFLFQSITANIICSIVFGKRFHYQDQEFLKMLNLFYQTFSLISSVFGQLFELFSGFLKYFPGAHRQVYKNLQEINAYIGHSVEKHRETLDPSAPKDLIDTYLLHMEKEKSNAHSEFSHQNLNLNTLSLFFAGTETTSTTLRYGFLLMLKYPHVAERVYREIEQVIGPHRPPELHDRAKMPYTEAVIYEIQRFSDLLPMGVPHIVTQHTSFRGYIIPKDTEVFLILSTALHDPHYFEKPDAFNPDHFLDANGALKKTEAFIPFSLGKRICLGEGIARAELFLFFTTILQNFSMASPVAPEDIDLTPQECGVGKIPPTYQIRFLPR

[22] = test system: A549; assay: Antitumor activity against human A549 cells xenografted in BALB/c mouse assessed as tumor growth delay at 25 mg/kg, po treated daily relative to control
[23] = biological target: T1, Heat shock protein HSP90; assay: Inhibition of HSP90 in human A549 cells assessed as downregulation of FAK expression incubated for 24 hrs by immunoblot analysis; assay type: cell-based; settings: dose microM <=3, time 24.0 hrs
[24] = test system: A549; assay: Induction of apoptosis in human A549 cells assessed as upregulation of p53 protein expression at 0.3 uM incubated for 24 hrs by Western blot analysis; assay type: functional, cell-based
[25] = biological target: T3, Cytochrome P450 1A2 (Homo sapiens, UniProt P05177); assay: Inhibition of CYP1A2 in human liver microsomes using phenacetin as substrate by LC-MS/MS analysis; assay type: ADME
T3 sequence (P05177 whole entry): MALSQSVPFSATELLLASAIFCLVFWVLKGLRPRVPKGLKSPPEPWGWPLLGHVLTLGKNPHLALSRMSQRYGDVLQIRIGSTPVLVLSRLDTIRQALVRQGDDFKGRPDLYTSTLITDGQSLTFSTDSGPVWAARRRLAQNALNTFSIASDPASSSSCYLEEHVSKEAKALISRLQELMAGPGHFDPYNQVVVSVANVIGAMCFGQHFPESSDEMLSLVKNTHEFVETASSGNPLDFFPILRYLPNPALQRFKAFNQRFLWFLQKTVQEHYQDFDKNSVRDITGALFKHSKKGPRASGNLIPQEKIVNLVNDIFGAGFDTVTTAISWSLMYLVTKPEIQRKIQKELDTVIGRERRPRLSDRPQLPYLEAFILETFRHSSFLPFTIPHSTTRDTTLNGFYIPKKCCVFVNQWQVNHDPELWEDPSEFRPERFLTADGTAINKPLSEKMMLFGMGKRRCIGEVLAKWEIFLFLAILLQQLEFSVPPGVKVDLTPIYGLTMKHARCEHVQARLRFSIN

[26] = biological target: T1, Heat shock protein HSP90; assay: Inhibition of HSP90 in human A549 cells assessed as downregulation of FAK expression at 3 uM by immunoblot analysis; assay type: cell-based; settings: time hrs <=24, TDE = time-dependent effect
[27] = test system: A549; assay: Induction of cell cycle arrest in human A549 cells assessed as M stage arrest by measuring upregulation of p-MPM-2 expression at 0.3 uM incubated for 24 hrs by Western blot analysis; assay type: functional, cell-based
[28] = AUC (0 to infinity) in Sprague-Dawley rat at 20 mg/kg, po measured after 1 hrs by LC-MS/MS analysis; assay type: ADME, organism-based; parameters: route oral, time 1 hrs, dose 20 mg/kg; settings: in vivo
[29] = Hepatic clearance in CD1 mouse by LC-MS/MS analysis; assay type: ADME, tissue-based, Hepatocyte; settings: hepatocytes

Structure (SMILES): CCN(C(=O)c1cc(C(C)C)c(O)cc1O)c1cccnc1
- Activity [1]: Tde
- inhibition [2]: Dose-Dependent Effect
- Tmax [3]: 15 min
- Activity [4]: Active
- CLhep predicted [5]: 51.2 mL/min/kg
- CLint [6]: 3080 mL/min/kg
- IC50 [7]: > 50 µM
- Activity [8]: Active
- CLint [9]: 119 mL/min/kg
- Activity [10]: > 10 µM
- Activity [11]: Non-Toxic
- AUCt [12]: 737 ng·h/mL
- IC50 [13]: 15 µM
- CLint [14]: 751 mL/min/kg
- half-life [15]: 11.2 min
- Activity [16]: Active
- Activity [17]: Active
- clearance [18]: 73.2 mL/min/kg
- inhibition at 50 µM [19]: 84%
- inhibition [20]: Dose-Dependent Effect
- IC50 [21]: 37.2 µM
- Activity [22]: 41%
- inhibition [23]: Dose-Dependent Effect
- Activity [24]: Active
- IC50 [25]: > 50 µM
- inhibition [26]: Tde
- Activity [27]: Active
- AUC [28]: 811 ng·h/mL
- CLhep predicted [29]: 87.5 mL/min/kg
